In US11964962B2, “Substituted pyridazinone compound and use thereof” (SHANDONG FIRST MEDICAL UNIVERSITY & SHANDONG ACADEMY OF …, priority 2020, dated 2024):

Tests used:
THRα = target: T1, THRα (Homo sapiens, UniProt P10827); assay: THRα agonist activity, fluorescence ratio 665 nm/615 nm with EE-RxRα and biotin-GRIP; type: biochemical; details: incubated overnight at 4° C.
T1 construct: GST
T1 sequence (P10827 1-410 isoform P10827-2): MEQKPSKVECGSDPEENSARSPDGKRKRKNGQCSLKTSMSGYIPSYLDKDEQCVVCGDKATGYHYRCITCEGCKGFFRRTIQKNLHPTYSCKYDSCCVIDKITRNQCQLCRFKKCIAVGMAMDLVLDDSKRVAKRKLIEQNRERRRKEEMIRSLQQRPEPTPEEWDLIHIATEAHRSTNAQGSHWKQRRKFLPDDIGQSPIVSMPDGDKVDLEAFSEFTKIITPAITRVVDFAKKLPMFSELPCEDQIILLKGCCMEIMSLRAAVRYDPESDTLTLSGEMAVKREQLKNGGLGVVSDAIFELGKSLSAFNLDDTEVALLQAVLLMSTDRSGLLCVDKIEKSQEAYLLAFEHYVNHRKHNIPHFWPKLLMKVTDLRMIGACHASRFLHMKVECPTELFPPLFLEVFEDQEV
T1 sequence (P19793 225-462 partner limits assumed): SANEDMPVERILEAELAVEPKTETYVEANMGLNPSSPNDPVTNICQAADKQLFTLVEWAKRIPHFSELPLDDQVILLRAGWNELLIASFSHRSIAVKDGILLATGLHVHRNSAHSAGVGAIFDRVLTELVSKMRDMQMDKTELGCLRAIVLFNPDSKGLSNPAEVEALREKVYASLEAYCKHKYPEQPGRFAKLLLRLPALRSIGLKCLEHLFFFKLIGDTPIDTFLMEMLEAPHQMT
T1 sequence (Q15596 679-703 partner limits assumed): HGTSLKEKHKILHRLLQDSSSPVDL
Procedure: (§1) Test compound was dissolved and serially diluted in dimethyl sulfoxide (DMSO) with a final compound concentration of 60 mM. […] Buffer 1 was employed again to prepare EE-RxRα at the same concentrations as those of THRα and THRβ, respectively. Buffer 1+5% DMSO was employed to prepare biotin-GRIP (THRα: […], THRβ: 100 nM). Buffer 2 (50 mM Tris, pH 7.4, 100 mM NaCl, and 0.2 mg/mL BSA) was employed to prepare a mixed solution of 2×Eu-anti-GST and 2×streptavidin-d2. 5 μL of the THRα (THRβ) solution+5 μL of EE-RxRα+2.5 μL of the DMSO solution of test compound+2.5 μL of biotin-GRIP+5 μL of the mixed solution of 2×Eu-anti-GST and 2×streptavidin-d2 was employed as the reaction system, and incubated overnight at 4° C.

THRβ = target: T2, THRβ (Homo sapiens, UniProt P10828); assay: THRβ agonist activity, fluorescence ratio 665 nm/615 nm with EE-RxRα and biotin-GRIP; type: biochemical; details: incubated overnight at 4° C.
T2 construct: GST
T2 sequence (P10828 1-461): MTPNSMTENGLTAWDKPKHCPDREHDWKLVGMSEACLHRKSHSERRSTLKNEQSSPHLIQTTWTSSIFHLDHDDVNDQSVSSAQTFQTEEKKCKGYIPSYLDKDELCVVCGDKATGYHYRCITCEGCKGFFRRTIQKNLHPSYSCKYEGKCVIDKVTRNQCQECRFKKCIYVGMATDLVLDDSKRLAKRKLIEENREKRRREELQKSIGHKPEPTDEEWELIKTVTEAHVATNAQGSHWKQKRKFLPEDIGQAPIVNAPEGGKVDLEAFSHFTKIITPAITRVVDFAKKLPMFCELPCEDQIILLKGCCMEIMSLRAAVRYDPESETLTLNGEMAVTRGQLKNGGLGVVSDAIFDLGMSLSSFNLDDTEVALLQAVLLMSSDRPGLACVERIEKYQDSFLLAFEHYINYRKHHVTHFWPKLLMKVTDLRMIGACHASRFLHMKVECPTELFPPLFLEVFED
T2 sequence (P19793 225-462 partner limits assumed): T1 sequence (P19793 225-462 partner limits assumed)
T2 sequence (Q15596 679-703 partner limits assumed): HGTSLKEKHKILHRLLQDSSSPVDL
Procedure: as §1

L929 mouse fibroblasts = assay: Cytotoxicity in normal cell line L929 (CCK-8 proliferation assay); type: cell-based; details: 48 h treatment, CCK-8, absorbance 450 nm, read-out: IC50 for proliferation of L929 cell lines
Procedure: Concentration of L929 mouse fibroblasts was adjusted to 4×10^5 cells/mL. The cells were seeded in a 96 well plate with […] per well. Wells not supplied with the cells (blank group) were provided. The cells were cultivated on the plate and were allowed to adhere overnight. Then, cell culture supernatants were collected, and 200 μL of test compound at various concentrations were added to the corresponding cell culture supernatants. Control and compound-treated cell culture supernatants were included in each experiment with triplicate wells for each experimental group, and were cultivated for a further 48 h. Then, the resulting cell culture supernatants were again collected, and fresh medium supplemented with 10% CCK-8 solution was added thereto. Incubation for an additional 3 h was carried out. Thereafter, the absorbance of the medium was measured at 450 nm wavelength, and the inhibitory rate of cell proliferation by test compound was calculated according to the equation below: R (%)=1−(Aexperiment−Ablank)/(Acontrol−Ablank)

Row | SMILES | EC50 (THRα) | EC50 (THRβ) | IC50 (L929 mouse fibroblasts)
1 | CC(C)c1cc(Oc2c(Cl)cc(-c3nn[nH]n3)cc2Cl)n[nH]c1=O [Compound 49, 6-(2,6-dichloro-4-(2H-tetrazol-5-yl)phenoxy)-4-isopropylpyridazin-3(2H)-one] | 3.32 µM | 254 nM | > 50 µM
2 | CC(C)(C)c1cc(Oc2c(Cl)cc(-n3nc(C#N)c(=O)[nH]c3=O)cc2Cl)n[nH]c1=O [Compound 1, 2-(4-((5-(tert-butyl)-6-oxo-1,6-dihydropyridazin-3-yl)oxy)-3,5-dichlorophenyl)-3,5-dioxo-2,3,4,5-tetrahydro-1,2,4-triazine-6-carbonitrile] | 0.126 µM | 101 nM | > 50 µM
3 | N#Cc1nn(-c2ccc(Oc3n[nH]c(=O)cc3C3CC3)c(Cl)c2)c(=O)[nH]c1=O [Compound 37] | 0.001 µM | 3220 nM | > 50 µM
4 | CC(C)(C)Cc1cc(Oc2c(Cl)cc(-n3nc(C#N)c(=O)[nH]c3=O)cc2Cl)n[nH]c1=O [Compound 18] | 2.11 µM | 31.1 nM | > 50 µM
5 | CC(C)c1cc(=O)[nH]nc1Oc1cc(Cl)c(-n2nc(C#N)c(=O)[nH]c2=O)cc1Cl [Compound 35] | > 60 µM | > 60000 nM | > 50 µM
6 | CC(C)(C)c1cc(Oc2ccc(-n3nc(C#N)c(=O)[nH]c3=O)c(Cl)c2)n[nH]c1=O [Compound 4] | > 60 µM | 1570 nM | > 50 µM
7 | COc1cc(-n2nc(C#N)c(=O)[nH]c2=O)ccc1Oc1cc(CC2CCCC2)c(=O)[nH]n1 [Compound 12] | 8.68 µM | 723 nM | > 50 µM
8 | COc1cc(-n2nc(C#N)c(=O)[nH]c2=O)ccc1Oc1cc(C(C)C)c(=O)[nH]n1 [Compound 31] | 5.11 µM | 62.5 nM | > 50 µM
9 | N#Cc1nn(-c2ccc(Oc3cc(C4CCCC4)c(=O)[nH]n3)c(F)c2)c(=O)[nH]c1=O [Compound 32] | 18.5 µM | 279 nM | > 50 µM
10 | CC(C)Cc1cc(Oc2c(Cl)cc(-n3nc(C#N)c(=O)[nH]c3=O)cc2Cl)n[nH]c1=O [Compound 14] | 3.39 µM | 25.4 nM | > 50 µM
11 | CC(C)c1cc(Oc2cc(Cl)c(-n3cc(C#N)c(=O)[nH]c3=O)cc2Cl)n[nH]c1=O [Compound 40] | 24.1 µM | > 63000 nM | > 50 µM
12 | N#Cc1nn(-c2cc(Cl)c(Oc3cc(C4CCCC4)c(=O)[nH]n3)cc2Cl)c(=O)[nH]c1=O [Compound 34] | 0.014 µM | 3850 nM | > 50 µM
13 | N#Cc1nn(-c2ccc(Oc3cc(CC4CCCC4)c(=O)[nH]n3)cc2Cl)c(=O)[nH]c1=O [Compound 10] | – | 1520 nM | > 50 µM
14 | CC(C)(C)Cc1cc(Oc2cc(Cl)c(-n3nc(C#N)c(=O)[nH]c3=O)cc2Cl)n[nH]c1=O [Compound 20] | – | 4580 nM | > 50 µM
15 | COc1cc(-n2nc(C#N)c(=O)[nH]c2=O)ccc1Oc1n[nH]c(=O)c(C)c1C [Compound 46] | 50.8 µM | 1400 nM | > 50 µM
16 | CC(C)c1cc(Oc2ccc(-n3cc(C#N)c(=O)[nH]c3=O)c(Cl)c2)n[nH]c1=O [Compound 41] | 0.001 µM | > 60000 nM | > 50 µM
17 | CC(C)c1cc(Oc2ccc(-n3nc(C#N)c(=O)[nH]c3=O)cc2Cl)n[nH]c1=O [Compound 26] | 2.07 µM | 55 nM | > 50 µM
18 | CC(C)c1cc(Oc2c(Cl)cc(-c3c[nH]c(=O)c(O)c3)cc2Cl)n[nH]c1=O [Compound 47, 6-(2,6-dichloro-4-(5-hydroxy-6-oxo-1,6-dihydropyridin-3-yl)phenoxy)-4-isopropylpyridazin-3(2H)-one] | 17.6 µM | 1650 nM | > 50 µM

Row | SMILES | EC50 (THRα) | EC50 (THRβ) | IC50 (L929 mouse fibroblasts)
19 | CC(C)Cc1cc(Oc2ccc(-n3nc(C#N)c(=O)[nH]c3=O)cc2Br)n[nH]c1=O [Compound 15] | – | 1520 nM | > 50 µM
20 | CC(C)c1cc(Oc2ccc(-n3nc(C#N)c(=O)[nH]c3=O)cc2Br)n[nH]c1=O [Compound 27] | 2.55 µM | 31.1 nM | > 50 µM
21 | CC(C)(C)Cc1cc(Oc2ccc(-n3cc(C#N)c(=O)[nH]c3=O)c(Cl)c2)n[nH]c1=O [Compound 45] | – | > 60000 nM | > 50 µM
22 | Cc1c(Oc2ccc(-n3nc(C#N)c(=O)[nH]c3=O)cc2F)n[nH]c(=O)c1C [Compound 23] | 4.59 µM | 776 nM | > 50 µM
23 | CC(C)c1cc(Oc2ccc(-n3nc(C#N)c(=O)[nH]c3=O)cc2F)n[nH]c1=O [Compound 25] | 0.014 µM | 2700 nM | > 50 µM
24 | CC(C)(C)Cc1cc(Oc2c(Cl)cc(-n3cc(C#N)c(=O)[nH]c3=O)cc2Cl)n[nH]c1=O [Compound 43] | 6.62 µM | 40.3 nM | > 50 µM
25 | CC(C)c1cc(Oc2ccc(-n3nc(C#N)c(=O)[nH]c3=O)c(Cl)c2)n[nH]c1=O [Compound 30] | > 60 µM | 17300 nM | > 50 µM
26 | N#Cc1nn(-c2ccc(Oc3cc(CC4CCCC4)c(=O)[nH]n3)c(Cl)c2)c(=O)[nH]c1=O [Compound 8] | 6.15 µM | 32.6 nM | > 50 µM
27 | COc1cc(-n2nc(C#N)c(=O)[nH]c2=O)ccc1Oc1cc(CC(C)(C)C)c(=O)[nH]n1 [Compound 21] | 19.9 µM | 1520 nM | > 50 µM
28 | N#Cc1nn(-c2ccc(Oc3cc(C4CCCC4)c(=O)[nH]n3)cc2Cl)c(=O)[nH]c1=O [Compound 33] | – | 7550 nM | > 50 µM
29 | CC(C)(C)c1cc(Oc2ccc(-n3nc(C#N)c(=O)[nH]c3=O)cc2Cl)n[nH]c1=O [Compound 3] | 1.4 µM | 810 nM | > 50 µM
30 | COc1cc(-n2nc(C#N)c(=O)[nH]c2=O)ccc1Oc1cc(C(C)(C)C)c(=O)[nH]n1 [Compound 5] | 0.883 µM | 4900 nM | > 50 µM
31 | Cc1c(Oc2c(Cl)cc(-n3nc(C#N)c(=O)[nH]c3=O)cc2Cl)n[nH]c(=O)c1C [Compound 22] | 0.631 µM | 184 nM | > 50 µM
32 | CC(C)(C)c1cc(Oc2c(Cl)cc(-c3c[nH]c(=O)c(O)c3)cc2Cl)n[nH]c1=O [Compound 48] | 3.66 µM | 745 nM | > 50 µM
33 | N#Cc1nn(-c2ccc(Oc3n[nH]c(=O)cc3C3CCCC3)c(Cl)c2)c(=O)[nH]c1=O [Compound 39] | 3.22 µM | 583 nM | > 50 µM
34 | N#Cc1cn(-c2cc(Cl)c(Oc3cc(C4CCC4)c(=O)[nH]n3)c(Cl)c2)c(=O)[nH]c1=O [Compound 42, 1-(3,5-dichloro-4-((5-cyclobutyl-6-oxo-1,6-dihydropyridazin-3-yl)oxy)phenyl)-2,4-dioxo-1,2,3,4-tetrahydropyrimidine-5-carbonitrile] | 1.81 µM | 25.7 nM | > 50 µM
35 | CC(C)(C)Cc1cc(Oc2cc(Cl)c(-n3cc(C#N)c(=O)[nH]c3=O)cc2Cl)n[nH]c1=O [Compound 44] | 2.32 µM | 42 nM | > 50 µM
36 | CC(C)c1cc(Oc2cc(Cl)c(-n3nc(C#N)c(=O)[nH]c3=O)cc2Cl)n[nH]c1=O [Compound 29] | – | 117 nM | > 50 µM
